# From PubChem BioAssay (NCI)
# Several values for one entry are separate records, joined by “and”; a condition that tells them apart may be missing. Identical values can stand only once.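 Growth conditions: 96-well plates. Treatment: test compound, 48 hours, 5 concentrations. Analysis: linear interpolation between bracketing concentrations; unreached endpoints set to highest concentration. GI50 is the concentration that inhibits growth by half. At the TGI there is no net growth.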
# Columns and labels:
# Assay in all cases: inhibition of tumour cell growth, NCI panel, 48 h
# 786-0 renal = system: 786-0 renal
# COLO 205 colon = system: COLO 205 colon
# DU-145 prostate = system: DU-145 prostate
# HL-60(TB) leukemia = system: HL-60(TB) leukemia
# NCI-H522 lung = system: NCI-H522 lung
# OVCAR-4 ovarian = system: OVCAR-4 ovarian
# OVCAR-5 ovarian = system: OVCAR-5 ovarian
# PC-3 prostate = system: PC-3 prostate
# RPMI-8226 leukemia = system: RPMI-8226 leukemia
# RXF 393 renal = system: RXF 393 renal
# SF-268 CNS = system: SF-268 CNS
# SF-539 CNS = system: SF-539 CNS
# SW-620 colon = system: SW-620 colon
# U251 CNS = system: U251 CNS
# MOLT-4 leukemia = system: MOLT-4 leukemia
# CCRF-CEM leukemia = system: CCRF-CEM leukemia
Compound,TGI (786-0 renal),TGI (COLO 205 colon),TGI (DU-145 prostate),TGI (HL-60(TB) leukemia),TGI (NCI-H522 lung) [µM],TGI (OVCAR-4 ovarian) [µM],TGI (OVCAR-5 ovarian) [µM],TGI (PC-3 prostate),TGI (RPMI-8226 leukemia) [µM],TGI (RXF 393 renal) [µM],TGI (SF-268 CNS) [µM],TGI (SF-539 CNS),TGI (SW-620 colon) [µM],TGI (U251 CNS) [µM],TGI (MOLT-4 leukemia) [µM],TGI (CCRF-CEM leukemia) [µM],GI50 (OVCAR-4 ovarian),GI50 (RPMI-8226 leukemia) [µM],GI50 (U251 CNS)
COc1cc(C2c3cc4c(cc3OC(NN)C2C)OCO4)cc(OC)c1O (centres undefined),> 100 µM,40.4 µM,> 100 µM,5.32 µM,42.2,> 100,> 100,> 100 µM,17.8,> 100,> 100,45.4 µM,> 100,33.5,,,,,
O=[N+]([O-])c1cccc2nc3ccccc3c(NCCCCCNc3c4ccccc4nc4cccc([N+](=O)[O-])c34)c12,0.0666 µM and 0.0332 µM,0.13 µM and 0.0322 µM,0.0929 µM,0.0429 µM,0.388,0.738,0.935,0.598 µM,0.637,0.111,,0.135 µM and 0.0297 µM,1.62,,0.244,,,,
Cc1cc(N(CCC#N)CCC#N)ccc1/C(N=Nc1ccccc1)=N\NC(=O)c1cc(Cl)ccc1O,70.3 µM,39.1 µM,> 100 µM,> 100 µM,31,65.4,,> 100 µM,> 100,70.2,> 100,58.3 µM,,> 100,92.6,96.3,,,
COC(=O)C1CCC(=O)N1CN(C(C)=O)c1cccc(O)c1 (centres undefined),> 100 µM,> 100 µM,> 100 µM,> 100 µM,> 100,> 100,> 100,> 100 µM,> 100,> 100,> 100,> 100 µM,> 100,> 100,> 100,,,,
Cn1c2ccccc2c(=O)c2c(O)cc3c(c21)C1OCC(C)(O)C1O3 (centres undefined),> 100 µM,> 100 µM,> 100 µM,> 100 µM,,> 100,> 100,> 100 µM,> 100,69,86.6,56.2 µM,> 100,62.5,> 100,> 100,,,
CC(C)C(Cl)CCC(C)(Cl)C(=O)CBr (centres undefined),8.02 µM,12 µM,36.7 µM,> 100 µM,3.34,12.7,26.7,23.2 µM,2.52,7.79,56,32.1 µM,5.65,25.8,,> 100,,,
NC1=NC2(COC(c3ccccc3)(c3ccccc3)c3ccccc3)OC(COC(c3ccccc3)(c3ccccc3)c3ccccc3)C(O)C2O1 (centres undefined),> 100 µM,> 100 µM,> 100 µM,> 100 µM,> 100,,> 100,> 100 µM,52.4,> 100,,> 100 µM,> 100,> 100,> 100,> 100,,,
COc1cc([C@@H]2c3cc4c(cc3[C@@H](Nc3ccc(NC(=O)c5cc([N+](=O)[O-])cn5C)cc3)[C@H]3COC(=O)[C@H]23)OCO4)cc(OC)c1O,0.29 µM and 0.261 µM,2.61 µM and 1.3 µM,0.0772 µM and 0.0578 µM,0.201 µM and 0.0837 µM,> 100,> 100,10.4,> 100 µM and 12.5 µM,0.116,> 100,> 33.5,0.446 µM and 0.414 µM,,> 57.5,,0.14,11.6 µM and 4.09 µM,< 0.01,0.0436 µM and 0.337 µM
Cc1ccc(S[C@@](C=O)(NC(=O)OCc2ccccc2)C(F)(F)F)cc1,47.5 µM,35.5 µM,47.4 µM,41.8 µM,,> 100,54.8,54.9 µM,57.2,31.2,> 100,70.9 µM,66.9,40.7,52,52.3,,,
COc1ccc(CCCCNCc2cccc(CNCCCCc3ccc(OC)cc3)c2)cc1,4.51 µM,5.22 µM,3.54 µM,3.98 µM,3.5,3.98,4.33,3.55 µM,> 100,3.28,3.35,,3.28,3.71,6.86,4.47,,,
NNc1nnc(CCCCCCCCc2nnc(NN)n2N)n1N,> 100 µM,> 100 µM,> 100 µM,> 100 µM,> 100,> 100,> 100,> 100 µM,,> 100,> 100,> 100 µM,> 100,49,> 100,> 100,,,
Cc1[nH]n(-c2nc3c(c(=O)[nH]2)CCCC3)c(=O)c1CCO,> 100 µM,> 100 µM,> 100 µM,> 100 µM,> 100,> 100,> 100,> 100 µM,,> 100,> 100,> 100 µM,> 100,> 100,> 100,> 100,,,
O=C(NCCN(CCNC(=O)c1cccc(O)c1O)CCNC(=O)c1cccc(O)c1O)c1cccc(O)c1O,> 100 µM,> 100 µM,> 78.9 µM,> 100 µM,15.4,> 100,> 100,> 100 µM,> 59.7,94.6,> 100,> 100 µM,> 100,> 89,,,,,
Cc1c(C)c2c(c(N)c1C#N)C(=O)N(Cc1ccc(S(N)(=O)=O)cc1)C2=O,> 56.5 µM,> 100 µM,> 75.8 µM,> 100 µM,,> 100,> 87.9,> 100 µM,> 100,39.3,> 86.3,> 60.1 µM,> 100,> 80.6,> 100,> 100,,,
CC1=NN(c2nc(N)nc(C(C)Cl)n2)C(C)(C)C1 (centres undefined),> 100 µM,> 100 µM,> 100 µM,> 100 µM,,> 100,,> 100 µM,> 100,> 100,> 100,> 100 µM,> 100,> 100,> 100,> 100,,,
Oc1c(N2CCCCC2)cc(-c2cc(N3CCCCC3)c(O)c3ccccc23)c2ccccc12,45 µM,67.6 µM,49 µM,> 100 µM,,44.9,> 100,> 100 µM,> 100,77.7,> 100,81.8 µM,94.2,> 100,79.8,> 100,,,
CC(=O)c1ccc(N=NN2CCCC2)cc1,> 100 µM,> 100 µM,> 100 µM,> 100 µM,> 100,> 100,> 100,> 100 µM,,> 100,> 100,> 100 µM,> 100,> 100,> 100,> 100,,,
Cc1cc(O)c(/C=N/C(N)=S)c(=O)o1,> 100 µM,> 100 µM,> 100 µM,41.2 µM,> 100,> 100,> 100,> 100 µM,,> 100,> 100,> 100 µM,> 100,> 100,> 100,84.4,,,
Cc1c(C)c(S(=O)(=O)N(CCCCN)OCCCN)c(C)c2c1OC(C)(C)CC2,31.9 µM,> 100 µM,57.7 µM,> 100 µM,34.1,30,34.7,23.3 µM,66.5,,49.6,64.2 µM,> 100,> 100,75.6,98.3,,,
COC(=O)c1cc(S(=O)(=O)NC2=NCC(C)NN2)c(S)cc1Cl (centres undefined),> 100 µM,> 100 µM,> 100 µM,> 100 µM,47.5,> 100,> 100,> 100 µM,> 100,,60.6,> 100 µM,> 100,> 100,> 100,> 100,,,
C=CCON(C(=O)OC(C)(C)C)C(C)(C)C,> 100 µM,> 100 µM,> 100 µM,> 100 µM,> 100,> 100,> 100,> 100 µM,> 100,> 100,> 100,,> 100,> 100,> 100,> 100,,,
CCOC(=O)c1c(NC(=O)c2ccccc2)c(C#N)c2n1CCCCC2,> 100 µM,> 100 µM,> 100 µM,> 100 µM,> 100,> 100,> 100,> 100 µM,> 100,> 100,> 100,,,> 100,> 100,> 100,,,
C[C@H]1CC[C@@]2(OC1)O[C@H]1C[C@H]3[C@@H]4CC[C@@H]5C[C@@H](OC6OC(CO)C(O)C(O)C6OC6OC(CO)C(O)C(O)C6O)CC[C@]5(C)[C@H]4CC[C@]3(C)[C@H]1[C@@H]2C (some centres undefined),3.69 µM,3.55 µM,4.1 µM,3.25 µM,4.75,4.08,3.45,3.84 µM,3.97,,4.25,3.72 µM,3.4,4,3.79,3.73,,,
